One experiment concerns the target T1, KDM4A (Homo sapiens, UniProt O75164).
T1 construct: N-terminal His-tagged KDM4A^1-350 was purchased from BPS Biosciences; His (N); purchased BPS Biosciences
T1 sequence (O75164 1-350): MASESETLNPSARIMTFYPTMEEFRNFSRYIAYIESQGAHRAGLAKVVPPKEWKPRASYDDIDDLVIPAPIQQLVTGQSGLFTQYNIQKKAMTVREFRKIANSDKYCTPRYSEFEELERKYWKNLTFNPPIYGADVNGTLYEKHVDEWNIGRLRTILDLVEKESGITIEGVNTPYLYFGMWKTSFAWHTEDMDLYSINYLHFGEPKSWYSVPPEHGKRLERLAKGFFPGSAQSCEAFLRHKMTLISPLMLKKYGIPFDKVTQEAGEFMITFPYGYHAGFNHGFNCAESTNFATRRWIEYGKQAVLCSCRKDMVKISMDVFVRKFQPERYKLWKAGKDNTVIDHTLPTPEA
Description: KDM4A Assay (SAMDI mass spectrometry demethylase assay). Conditions: N-terminal His-tagged KDM4A 1-350; class symbols; read-out: 4A IC50. Type of experiment: biochemical. The procedure: N-terminal His-tagged KDM4A^1-350 was purchased from BPS Biosciences. Peptides were synthesized by BioPeptide and all other reagents were purchased from Sigma-Aldrich at the highest level of purity possible. Assays were performed in a 50 μL volume in 384-well V-bottom polypropylene microplates (Greiner) at 25° C. Optimized 1× assay buffer was 50 mM HEPES (pH=8.0), 100 μM sodium ascorbate, 20 mM NaCl, 10 μM ammonium iron sulfate, 1 mM tris(2-carboxyethyl)phosphine (TCEP), 0.002% Tween-20, and 0.005% BSG. For compound screening, 35 μL of KDM4A^1-350 (final concentration, f.c.=5 nM) was added using a Multidrop Combi and preincubated with 1 μL of test compound (f.c.=10 μM) for 30 minutes and subsequently 15 μL of peptide with the following sequence NH2-ARTKQTAR(Kme2)STGGKAPRKQLA(K-Ahx-Biotin)-amide (f.c.=600 nM) and 2-oxoglutarate (f.c.=5 μM) was added by Multidrop Combi to begin the reaction. Reactions proceeded for 120 minutes and were stopped by the addition of 5 μL of formic acid (f.c.=0.5%) using a Multidrop Combi and then analyzed by SAMDI Tech Inc.
SAMDI Tech analyzed all reactions using self-assembled monoloayer desorption/ionization technology as previously described (Gerard-Levin Z A, Scholle M D, Eisenberg A H, et al.: High-throughput screening of small molecule libraries using SAMDI mass spectrometry. ACS Comb Sci 2011; 13:347-350). Briefly, a 2 μL sample of the stopped demethylase reactions were transferred to a SAMDI array coated with 384 biotin-neutravidin spots using a 384-channel pipet station. The SAMDI arrays were incubated for 1 h in a humidified chamber, followed by washing of the surface with deionized ultra-filtered water (DIUF) and drying under nitrogen. A matrix of 30 mg/ml 2′,4′,6′-Trihydroxyacetophenone monohydrate (THAP) in acetone was applied using a TPP Mosquito 1.2 μL tip by dispensing 50 nL on each of the 384 spots on the array. SAMDI-MS was run using acquisition method ReflectorPositiveUTX. The % conversion of substrate to product was calculated using the AUC of the substrate and product peptide peaks.
An IC50 value was determined by contacting various concentrations of a test compound with one of the KDM4A, KDM4C or KDMSC enzyme constructs and plotting a dose-response curve which associates the amount of inhibition of the enzyme relative to the concentration of the test compound. From the curve, the IC50 value (which represents the concentration of the test compound necessary to inhibit maximal enzymatic activity by 50%) was determined. Additionally, the slope of the linear range of the plotted curve, which indicates the speed with which the curve rises between the minimum and maximum, was calculated.

The next experiment addresses T2, KDM4C (Homo sapiens, UniProt Q9H3R0).
T2 construct: N-terminal GST-tagged KDM4C^2-372 was purchased from BPS Biosciences; GST (N); purchased BPS Biosciences
T2 sequence (Q9H3R0 2-372): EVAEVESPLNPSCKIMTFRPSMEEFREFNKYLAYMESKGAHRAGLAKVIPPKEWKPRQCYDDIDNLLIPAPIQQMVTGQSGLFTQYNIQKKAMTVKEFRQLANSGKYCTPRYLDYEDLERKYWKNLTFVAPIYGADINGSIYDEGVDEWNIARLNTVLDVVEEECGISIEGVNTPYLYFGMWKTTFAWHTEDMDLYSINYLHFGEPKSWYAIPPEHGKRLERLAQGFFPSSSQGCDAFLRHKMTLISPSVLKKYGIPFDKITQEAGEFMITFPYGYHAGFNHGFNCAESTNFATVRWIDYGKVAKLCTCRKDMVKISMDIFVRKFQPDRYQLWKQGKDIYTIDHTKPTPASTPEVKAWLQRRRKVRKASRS
As to the kind of experiment: KDM4C Assay (SAMDI mass spectrometry demethylase assay). Type of experiment: biochemical. Conditions: N-terminal GST-tagged KDM4C 2-372; class symbols; read-out: 4C IC50. Put shortly:
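GST-tagged KDM4C 2-372 (5 nM) preincubated 30 min with compound, then H3K9me3 biotinylated peptide (500 nM) and 2-oxoglutarate (15 μM) added in HEPES pH 8.0 with ascorbate, Fe(II), TCEP; 150 min at 25 °C, formic-acid quench. Conversion by SAMDI mass spectrometry from substrate/product peak AUC; IC50 from dose-response.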

As a reminder, the IC50 is the point on the concentration scale where inhibition reaches its midpoint.

The structures appear in SMILES notation.

For the compound `Cc1cc(Nc2cnccc2C(=O)O)n(-c2ccccc2)n1` [Compound 61, 3-((3-methyl-1-phenyl-1H-pyrazol-5-yl)amino) isonicotinic acid], the IC50 on KDM4A and on KDM4C was 100 to 1000 nM throughout.
Consider `Cc1cn(-c2ccccc2)nc1Nc1cnccc1C(=O)O` [Compound 62, 3-((4-methyl-1-phenyl-1H-pyrazol-3-yl)amino) isonicotinic acid], for which the IC50 on KDM4A and on KDM4C was 1 to 100 nM in each case.
`COc1ccccc1-n1cc(C)c(Nc2cnccc2C(=O)O)n1` [Compound 63, 3-((1-(2-methoxyphenyl)-4-methyl-1H-pyrazol-3-yl)amino) isonicotinic acid]: the IC50 at KDM4A and on KDM4C was 100 to 1000 nM in each case.
On to `CN(C)CCn1cc(-c2ccccc2)c(Nc2cnccc2C(=O)O)n1` [Compound 64, 3-((1-(2-(dimethylamino)ethyl)-4-phenyl-1H-pyrazol-3-yl)amino)isonicotinic acid], for which the half-maximal inhibitory concentration (IC50) at KDM4A and at KDM4C was 1 to 100 nM in each case.
Turning to `CN(C)CCn1ncc(-c2ccccc2)c1Nc1cnccc1C(=O)O` [Compound 65, 3-((1-(2-(dimethylamino)ethyl)-4-phenyl-1H-pyrazol-5-yl)amino)isonicotinic acid], the IC50 at KDM4A and at KDM4C was 1000 to 10000 nM each time.
For the compound `Cc1c(-c2ccccc2)nn(CCN2CCC(F)(F)CC2)c1Nc1cnccc1C(=O)O` [Compound 66, 3-((1-(2-(4,4-difluoropiperidin-1-yl)ethyl)-4-methyl-3-phenyl-1H-pyrazol-5-yl)amino)isonicotinic acid], the IC50 on KDM4A and at KDM4C was 10000 to 100000 nM each time.
`Cc1c(Nc2cnccc2C(=O)O)nn(CCN2CCC(F)(F)CC2)c1-c1ccccc1` [Compound 67, 3-((1-(2-(4,4-difluoropiperidin-1-yl)ethyl)-4-methyl-5-phenyl-1H-pyrazol-3-yl)amino)isonicotinic acid]: the half-inhibitory concentration (IC50) at KDM4A was 1 to 100 nM; on KDM4C, 100 to 1000 nM.
Regarding `Cc1c(Nc2cnccc2C(=O)O)cnn1C1CCNCC1` [Compound 68, 3-((5-methyl-1-(piperidin-4-yl)-1H-pyrazol-4-yl)amino)isonicotinic acid], the IC50 on KDM4A and on KDM4C was 100 to 1000 nM throughout.
With `Cc1nn(C2CCNCC2)cc1Nc1cnccc1C(=O)O` [Compound 69, 3-((3-methyl-1-(piperidin-4-yl)-1H-pyrazol-4-yl)amino) isonicotinic acid], the IC50 on KDM4A was in the range of 100 to 1000 nM; on KDM4C, 1000 to 10000 nM.
On the same counts, the results for `Cc1nn(-c2ccccc2C#N)cc1Nc1cnccc1C(=O)O` [Compound 70, 3-((1-(2-cyanophenyl)-3-methyl-1H-pyrazol-4-yl)amino) isonicotinic acid] are 100 to 1000 nM and 1000 to 10000 nM.
On the same counts, the results for `Cc1cn(-c2ccccc2C#N)nc1Nc1cnccc1C(=O)O` [Compound 71, 3-((1-(2-cyanophenyl)-4-methyl-1H-pyrazol-3-yl)amino) isonicotinic acid] are 100 to 1000 nM and 100 to 1000 nM.
On the same counts, the results for `O=C(O)c1ccncc1Nc1nn(C2CCOCC2)cc1-c1ccccc1` [Compound 72, 3-((4-phenyl-1-(tetrahydro-2H-pyran-4-yl)-1H-pyrazol-3-yl)amino)isonicotinic acid] are 1000 to 10000 nM and 1000 to 10000 nM.
As for `O=C(O)c1ccncc1Nc1nn(CCC(F)(F)F)cc1-c1ccccc1` [Compound 73, 3-((4-phenyl-1-(3,3,3-trifluoropropyl)-1H-pyrazol-3-yl)amino) isonicotinic acid], the IC50 on KDM4A and at KDM4C was 100 to 1000 nM throughout.
With `O=C(O)c1ccncc1Nc1nn(CCC(F)(F)F)cc1-c1ccncc1` [Compound 74, 3-((4-(pyridin-4-yl)-1-(3,3,3-trifluoropropyl)-1H-pyrazol-3-yl)amino)isonicotinic acid], the half-maximal inhibitory concentration (IC50) on KDM4A and on KDM4C was 100 to 1000 nM in each case.
Turning to `COc1ccc(-n2nc(C)c(Nc3cnccc3C(=O)O)c2C)cc1` [Compound 75, 3-((1-(4-methoxyphenyl)-3,5-dimethyl-1H-pyrazol-4-yl)amino)isonicotinic acid], the concentration for half-maximal inhibition (IC50) at KDM4A lay within 100 to 1000 nM; on KDM4C, 1000 to 10000 nM.
On the same counts, the results for `Cc1nn(-c2ccc(O)cc2)c(C)c1Nc1cnccc1C(=O)O` [Compound 76, 3-((1-(4-hydroxyphenyl)-3,5-dimethyl-1H-pyrazol-4-yl)amino)isonicotinic acid] are 100 to 1000 nM and 1000 to 10000 nM.
On the same counts, the results for `Cc1nn(-c2ccccc2)c(C)c1Nc1cnccc1C(=O)O` [Compound 77, 3-((3,5-dimethyl-1-phenyl-1H-pyrazol-4-yl)amino)isonicotinic acid] are 1 to 100 nM and 100 to 1000 nM.
On the same counts, the results for `Cc1cc(Nc2cnccc2C(=O)O)n(C2CCOCC2)n1` [Compound 78, 3-((3-methyl-1-(tetrahydro-2H-pyran-4-yl)-1H-pyrazol-5-yl)amino) isonicotinic acid] are 100 to 1000 nM and 100 to 1000 nM.
As for `Cc1c(Nc2cnccc2C(=O)O)cnn1[C@H]1CC[C@@H](N)CC1` [Compound 79, 3-((1-((cis)-4-aminocyclohexyl)-5-methyl-1H-pyrazol-4-yl)amino)isonicotinic acid], the IC50 on KDM4A and on KDM4C was 1 to 100 nM each time.
Turning to `Cc1c(Nc2cnccc2C(=O)O)cnn1C1CCN(C2CCC2)CC1` [Compound 96], the IC50 at KDM4A was in the range of 1 to 100 nM; on KDM4C it was 100 to 1000 nM.
Turning to `Cc1nn(C2CCN(C(=O)c3ccccc3)CC2)cc1Nc1cnccc1C(=O)O` [Compound 97, 3-(1-(1-benzoylpiperidin-4-yl)-3-methyl-1H-pyrazol-4-ylamino) isonicotinic acid], the IC50 at KDM4A and at KDM4C was 1000 to 10000 nM each time.
For the compound `Cc1c(Nc2cnccc2C(=O)O)cnn1C1CCN(C(=O)c2ccccc2)CC1` [Compound 98, 3-(1-(1-benzoylpiperidin-4-yl)-5-methyl-1H-pyrazol-4-ylamino) isonicotinic acid], the half-inhibitory concentration (IC50) on KDM4A and at KDM4C was 100 to 1000 nM in each case.
Consider `Cc1nn(C2CCN(CC(F)(F)F)CC2)cc1Nc1cnccc1C(=O)O` [Compound 99, 3-(3-methyl-1-(1-(2,2,2-trifluoroethyl)piperidin-4-yl)-1H-pyrazol-4-ylamino)isonicotinic acid], for which the IC50 fell in the range of 100 to 1000 nM at KDM4A and 1000 to 10000 nM on KDM4C.
On to `Cc1c(Nc2cnccc2C(=O)O)cnn1C1CCN(CC(F)(F)F)CC1` [Compound 100, 3-(5-methyl-1-(1-(2,2,2-tri-fluoro-ethyl)piperidin-4-yl)-1H-pyrazol-4-ylamino)isonicotinic acid], for which the IC50 at KDM4A and at KDM4C was 100 to 1000 nM each time.

The values are drawn from patent US20170291890A1 (Epizyme, Inc., priority 2014, published 2017).
